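How tested: cells in 96-well plates exposed to compound for 48 hours at five concentrations. GI50 is the concentration that inhibits growth by half.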 The source made the active and inactive calls. No stated cut-off is given here; in the data, active = GI50 up to about 1.1 µM and inactive = higher. Non-standard residues stand in square brackets, D forms with d. Residues, ends and D or L forms follow the SMILES beside them. ξ: configuration not given here. *: point of attachment. NMeF = CN[C@@H](Cc1ccccc1)C(=O)O; NMeN = CN[C@@H](CC(N)=O)C(=O)O; NMeV = CN[C@H](C(=O)O)C(C)C; ξNMeV = CNC(C(=O)O)C(C)C; Boc = CC(C)(C)OC(=O)*; ξNMeA = CNC(C)C(=O)O; ξV = CC(C)C(N)C(=O)O
Columns and labels:
Assay in all cases: DTP human tumour cell line panel, 48 h
NCI-H23 = system: NCI-H23
M14 = system: M14
Malme-3M = system: Malme-3M
HOP-92 = system: HOP-92
SF-539 = system: SF-539
T47D = system: T47D
RPMI-8226 = system: RPMI-8226
SK-MEL-28 = system: SK-MEL-28
MOLT-4 = system: MOLT-4
COLO 205 = system: COLO 205
NCI/ADR-RES = system: NCI/ADR-RES
NCI-H522 = system: NCI-H522
DU-145 = system: DU-145
KM12 = system: KM12
SNB-19 = system: SNB-19
IGROV-1 = system: IGROV-1
OVCAR-8 = system: OVCAR-8
NCI-H460 = system: NCI-H460
ACHN = system: ACHN
OVCAR-3 = system: OVCAR-3

Structure (SMILES) | GI50 (NCI-H23) | GI50 (M14) | GI50 (Malme-3M) | GI50 (HOP-92) | GI50 (SF-539) | GI50 (T47D) | GI50 (RPMI-8226) | GI50 (SK-MEL-28) | GI50 (MOLT-4) | GI50 (COLO 205) | GI50 (NCI/ADR-RES) | GI50 (NCI-H522) | GI50 (DU-145) | GI50 (KM12) | GI50 (SNB-19) | GI50 (IGROV-1) | GI50 (OVCAR-8) | GI50 (NCI-H460) | GI50 (ACHN) | GI50 (OVCAR-3)
CC(=O)Nc1ccc(/C=C2/NC(=S)N(/C=C3\C(=O)Oc4ccccc4C3=O)C2=O)cc1 | 67.3 µM (inactive) | 58.3 µM (inactive) | > 100 µM (inactive) | 63.2 µM (inactive) | 96.2 µM (inactive) | 64.3 µM (inactive) | 47.9 µM (inactive) | 85.7 µM (inactive) | 48 µM (inactive) | 61.8 µM (inactive) | 33.7 µM (inactive) | 36.7 µM (inactive) | 94 µM (inactive) | 45.2 µM (inactive) | > 100 µM (inactive) | 49 µM (inactive) | 38.6 µM (inactive) | 35.6 µM (inactive) | > 100 µM (inactive) | 24 µM (inactive)
COC(=O)C(C)N(C)C(=O)[C@H](CC(N)=O)N(C)C(=O)[C@@H]1CCCN1C(=O)[C@H](C(C)C)N(C)C(=O)C(C(C)C)N(C)C(=O)[C@H](Cc1ccccc1)N(C)C(=O)C(NC(=O)OC(C)(C)C)C(C)C (stereo not given in full) (Boc-[ξV][NMeF][ξNMeV][NMeV]P[NMeN][ξNMeA]-OMe) | 17.6 µM (inactive) | 15.9 µM (inactive) | 17.8 µM (inactive) | 20.9 µM (inactive) | 28 µM (inactive) | 19.5 µM (inactive) | 12.4 µM (inactive) | 18.2 µM (inactive) | 8.95 µM (inactive) | 13.3 µM (inactive) | > 50 µM (inactive) | 17.5 µM (inactive) | 28.8 µM (inactive) | 11.2 µM (inactive) | 19.7 µM (inactive) | 22.4 µM (inactive) | 17.5 µM (inactive) | 37.2 µM (inactive) | > 50 µM (inactive) | 12.5 µM (inactive)
OC(O)(C(F)(F)F)C(F)(F)F | > 100 µM (inactive) | > 100 µM (inactive) | > 100 µM (inactive) | > 100 µM (inactive) | > 100 µM (inactive) | > 100 µM (inactive) | > 100 µM (inactive) | > 100 µM (inactive) | > 100 µM (inactive) | > 100 µM (inactive) | > 100 µM (inactive) | > 100 µM (inactive) | > 100 µM (inactive) | > 100 µM (inactive) | > 100 µM (inactive) | > 100 µM (inactive) | > 100 µM (inactive) | > 100 µM (inactive) | > 100 µM (inactive) | > 100 µM (inactive)
CSc1nc(Br)nc2c1ncn2C1CC(Oc2ccc(C)cc2)C(COc2ccc(C)cc2)O1 (stereo not given) | 40.8 µM (inactive) | > 100 µM (inactive) | > 100 µM (inactive) | > 100 µM (inactive) | > 100 µM (inactive) | > 100 µM (inactive) | 93.8 µM (inactive) | > 100 µM (inactive) | > 100 µM (inactive) | > 100 µM (inactive) | > 100 µM (inactive) | > 100 µM (inactive) | > 100 µM (inactive) | > 100 µM (inactive) | 22.5 µM (inactive) | > 100 µM (inactive) | > 100 µM (inactive) | > 100 µM (inactive) | 33.7 µM (inactive) | > 100 µM (inactive)
NS(=O)(=O)c1ccc(Nc2c3ccccc3nc3c(C(=O)NC(CO)(CO)CO)cccc23)cc1 | 0.15 µM (active) | 0.186 µM (active) | 0.135 µM (active) | 0.153 µM (active) | 0.204 µM (active) | 0.0815 µM (active) | 0.217 µM (active) | 0.242 µM (active) | 0.0468 µM (active) | 0.0515 µM (active) | 0.769 µM (active) | 0.15 µM (active) | 0.194 µM (active) | 0.158 µM (active) | 0.217 µM (active) | 0.136 µM (active) | 0.181 µM (active) | 0.0668 µM (active) | 0.19 µM (active) | 0.15 µM (active)
COC(=O)C1CCC(=O)N1C(c1ccc(OC)cc1)c1ccc(OC)cc1 (stereo not given) | > 100 µM (inactive) | > 100 µM (inactive) | > 100 µM (inactive) | > 100 µM (inactive) | > 100 µM (inactive) | 78.9 µM (inactive) | > 100 µM (inactive) | > 100 µM (inactive) | > 100 µM (inactive) | > 100 µM (inactive) | > 100 µM (inactive) | > 100 µM (inactive) | > 100 µM (inactive) | > 100 µM (inactive) | > 100 µM (inactive) | > 100 µM (inactive) | > 100 µM (inactive) | > 100 µM (inactive) | > 100 µM (inactive) | > 100 µM (inactive)

From ChEMBL document CHEMBL1201862, “PubChem BioAssay data set” (2004)
